Legend:
Assay type in all cases: cell-based
[1] = tested on: white spruce somatic embryos; experiment: Effect of ABA concentration and PEG medium water potential on maturation frequency and precocious germination (Example 1); settings: for mean maturation frequency / precocious germination (appearance of embryos): 6 weeks; for mean maturation frequency: embryos per dish; for total of means (maturation frequency): summed over PEG medium water potentials 230-310
Method: For maturation, the ½ LM basal medium was supplemented with 250 mg/L glutamine and 500 mg/L casein hydrolysate and 3% sucrose. Amino acids were filter sterilized and added to cooled media. ABA (Sigma A 2784) stock solutions were prepared by first dissolving ABA in concentrated NaOH. ABA was added after autoclaving. The purity and source of (+)-ABA can influence results. Purer (+)-ABA would be required in lower amounts. Actual levels need to be determined depending on the source of ABA, the components of the culture medium, and species being studied. […] It is also possible to complement the maturation medium by incorporating auxin and/or cytokinin, or plant growth promoters having auxin-like and cytokinin-like activity. Similarly, gibberellin is in principle also a suitable complementary growth promoter, and an empirical approach taking into account such factors as plant species, environment, and so forth should be used to determine the concentration etc. of gibberellin.
For maturation, the solidified culture medium in 9 cm petri dishes was overlaid with a filter paper support to facilitate transfers to fresh media. Onto this was pipetted 0.75 mL of a 20% suspension of precultured cells resuspended in fresh hormone-free preculture medium with 3% sucrose. Cultures were incubated at 25 ° C. in the dark and transferred to fresh medium every two weeks.
Thus, immature white spruce somatic embryos were cultured on medium containing 8, 16, 24, and 32 μM ABA. […] Embryos were transferred to fresh medium of the same composition and were cultured for a total of six weeks. The number of embryos per dish were then counted and the appearance of the embryos was recorded. Results are for three to eight dishes per treatment. A total of 2439 mature embryos were recorded.

[2] = tested on: white spruce somatic embryos; experiment: Liquid maturation pretreatments with ABA and PEG, number of mature embryos (Example 7)
Method: Experiments were established to determine whether increasing ABA and water stress can be applied early in maturation. Somatic embryos in liquid maintenance suspension culture were transferred to liquid culture medium containing 1/20 of the strength of hormones in the preculture medium for 7 days. Seven treatments were prepared using these cultures as outlined below.
Starting water potential was 112 mmol/kg, and all preculture media contained 1/20 strength 2,4-D and BA that were present in the proliferation medium. Following these treatments, a 20% suspension was prepared and the embryos were plated onto solidified maturation medium containing PEG adjusted to 290 mmol/kg with PEG and 20 μM ABA.
Experiments were repeated at least three times and three replicates were prepared per treatment. Cultures were transferred to fresh medium every two weeks. Alternatively, to determine if PEG/ABA liquid maturation treatments modified the optimal starting water potential, the embryos were plated from the nine treatments to medium containing ABA at 20 μM and PEG at 290 or 380 mmol/kg. Additionally, to determine if PEG/ABA liquid maturation treatments modified the optimal starting ABA concentration, the embryos were plated from the nine treatments to medium containing PEG at 337 mmol/kg and ABA at 20 or 40 μM. Cultures were transferred to fresh medium every two weeks. After six weeks, the number of embryos developing per 0.75 mL starting inoculum was recorded. It can be seen from FIG. 3 that all treatments in which PEG and ABA were added gave an improvement over the control. Previous experiments had shown that the control ( 1/20 of the hormones present in the proliferation medium) yielded almost four times the number of mature embryos compared to no pretreatment (i e., full hormone treatment), and almost three times the number of mature embryos compared to culture in hormone-free preculture medium (i e., means of 154, 41, and 58 mature embryos per replicate, respectively). […] The best treatments were those that contained additions of both PEG and ABA. […]

[3] = tested on: white spruce somatic embryos; experiment: Varying ABA and PEG during development, precocious germination observations (Example 2); settings: 6 weeks
Method: In order to test the above hypothesis, various concentrations of PEG and ABA were tested and modified during development of white spruce somatic embryos.
The starting treatments were prepared as outlined in Table 2.
The embryos were transferred to fresh medium every two weeks over a six week period. Observations were then recorded. The treatments consisted of the following ABA concentrations and media water potentials, with three replicates per treatment.

Work on `CC1=CC(=O)CC(C)(C)[C@@]1(O)/C=C/C(C)=C\C(=O)O` [ABA, abscisic acid] yielded a mean maturation frequency ([1]; ABA 8 μm, PEG medium water potential 230 (mmol/kg)) of 29.7, a mean maturation frequency ([1]; ABA 8 μm, PEG medium water potential 260 (mmol/kg)) of 53.0 and a mean maturation frequency ([1]; ABA 8 μm, PEG medium water potential 290 (mmol/kg)) of 44.3. For the same molecule, the mean maturation frequency ([1]; ABA 8 μm, PEG medium water potential 310 (mmol/kg)) was 10.7, the “precocious germination (appearance of embryos)” value ([1]; ABA 8 μm, PEG medium water potential 310 (mol/kg)) was “greening” and the “total of means (maturation frequency)” value ([1]; ABA 8 μm) was 137.7. For the same molecule, the mean maturation frequency ([1]; ABA 16 μm, PEG medium water potential 230 (mmol/kg)) was 15.6, the mean maturation frequency ([1]; ABA 16 μm, PEG medium water potential 260 (mmol/kg)) was 44.0 and the “precocious germination (appearance of embryos)” value ([1]; ABA 16 μm, PEG medium water potential 260 (mol/kg)) was “greening”. The mean maturation frequency ([1]; ABA 16 μm, PEG medium water potential 290 (mmol/kg)) was 20.1, the mean maturation frequency ([1]; ABA 16 μm, PEG medium water potential 310 (mmol/kg)) was 0 and the “total of means (maturation frequency)” value ([1]; ABA 16 μm) was 79.7. For the same molecule, the mean maturation frequency ([1]; ABA 24 μm, PEG medium water potential 230 (mmol/kg)) was 28.0, the “precocious germination (appearance of embryos)” value ([1]; ABA 24 μm, PEG medium water potential 230 (mol/kg)) was “greening” and the mean maturation frequency ([1]; ABA 24 μm, PEG medium water potential 260 (mmol/kg)) was 22.8. For the same molecule, the mean maturation frequency ([1]; ABA 24 μm, PEG medium water potential 290 (mmol/kg)) was 28.7, the mean maturation frequency ([1]; ABA 24 μm, PEG medium water potential 310 (mmol/kg)) was 1.0 and the “total of means (maturation frequency)” value ([1]; ABA 24 μm) was 80.5. The mean maturation frequency ([1]; ABA 32 μm, PEG medium water potential 230 (mmol/kg)) was 28.0, the mean maturation frequency ([1]; ABA 32 μm, PEG medium water potential 260 (mmol/kg)) was 22.7 and the mean maturation frequency ([1]; ABA 32 μm, PEG medium water potential 290 (mmol/kg)) was 8.6. The mean maturation frequency ([1]; ABA 32 μm, PEG medium water potential 310 (mmol/kg)) was 2.5, the “total of means (maturation frequency)” value ([1]; ABA 32 μm) was 61.8 and the “best starting concentration of ABA in solidified maturation medium” value ([2]; optimal liquid treatments, PEG 337 mmol/kg, 20 or 40 μM tested, FIG. 4) was 20 µM. For the same molecule, the “embryos per milliliter of starting inoculum” value ([2]; treatment 8: PEG and ABA added in steps at days 3 and 5) was “over 280 embryos per milliliter”, the “average number of mature embryos” value ([2]; treatment 8: PEG and ABA added in steps at days 3 and 5 of liquid culture, per 0.75 mL inoculum) was “about 224 mature embryos per replicate” and the “observations (greening, precocious germination)” value (“observations” below) ([3]; Expt A (start PEG 260 mmol/kg, ABA 16 μM), 1. Control, fresh medium of the same composition) was “green, cotyledon elongation”. For the same molecule, the “observations” value ([3]; Expt A (start PEG 260 mmol/kg, ABA 16 μM), 2. Raise ABA (24, 32 μM)) was “slight or no greening”, the “observations” value ([3]; Expt A (start PEG 260 mmol/kg, ABA 16 μM), 5. Raise PEG (290, 320 mmol/kg), raise ABA (24, 32 μM)) was “slight or no greening” and the “observations” value ([3]; Expt B (start PEG 260 mmol/kg, ABA 24 μM), 1. Control, fresh medium of the same composition) was “greening”. The “observations” value ([3]; Expt B (start PEG 260 mmol/kg, ABA 24 μM), 2. Raise ABA (32, 32 μM)) was “no greening”, the “observations” value ([3]; Expt B (start PEG 260 mmol/kg, ABA 24 μM), 5. Raise PEG (290, 320 mmol/kg), raise ABA (32, 32 μM)) was “slight or no greening” and the “observations” value ([3]; Expt C (start PEG 290 mmol/kg, ABA 8 μM), 2. Raise ABA (16, 24 μM)) was “greening”. For the same molecule, the “observations” value ([3]; Expt C (start PEG 290 mmol/kg, ABA 8 μM), Raise PEG (12, 14%), raise ABA (16, 24 μM)) was “none or slight greening”, the “observations” value ([3]; Expt D (start PEG 290 mmol/kg, ABA 16 μM), 2. Raise ABA (24, 32 μM)) was “no greening” and the “observations” value ([3]; Expt D (start PEG 290 mmol/kg, ABA 16 μM), 4. Raise PEG (290, 320), lower ABA (8, 8 μM)) was “greening”. The “observations” value ([3]; Expt D (start PEG 290 mmol/kg, ABA 16 μM), 5. Raise PEG (290, 320), raise ABA (24, 32 μM)) was “no greening”.
